Reference: PMC5990611, “An in Vitro Assay of hERG K^+ Channel Potency for a New EGFR Inhibitor FHND004” (Frontiers in Pharmacology, 2018)

Test: In vivo pharmacokinetic assay in male SD rats
Settings: rat, serum, data not shown, read-out: maximum serum concentration (Cmax)

## C=CC(=O)Nc1cc(Nc2nccc(-c3cn(C)c4ccccc34)n2)c(OC)cc1N(C)CCN(C)C [AZD9291]
  Cmax: 220 nM
